Experimental data published in a melting point compilation (Tetko et al.; mined from patent text by program, amines drawn as free bases though some values may be those of a salt).

| melting point | SMILES |
| --- | --- |
| 133 to 135 °C | BrCCCSc1ccc2ncnn2n1 |
| 170 to 173 °C | CCOC(=O)NNC(=O)NCCOc1ccccc1 |
| 100 to 102 °C | Cc1ccc(-c2ccc(CBr)cc2)cc1 |
| 85 to 85.5 °C | COCCOc1ccc(CO)c(Oc2ncc(C(F)(F)F)cc2Cl)c1 |
| 105 to 107 °C | CC(C)C[C@H](NC(=O)OCc1ccccc1)C(=O)N[C@@H](Cc1ccccc1)C(=O)CSCc1ccc(Cl)s1 |
| 230 to 232 °C | COc1cc(Nc2c(C#N)cnc3cc(C#CCCO)c(OC)cc23)c(Cl)cc1Cl |
| 152 to 154 °C | O=C(O)c1ccc(Cl)cc1C(=O)NCCCCc1cccnc1 |
| 208 to 209 °C | CCCCCCCCCC(=O)Nc1cc(NC(=O)CCCCCCCCC)cc(C(=O)O)c1 |
| 218 to 220 °C | O=S1(=O)c2ccccc2-n2c(Cl)nnc21 |
| 72 to 73 °C | CCC(O)(c1ccc(F)cc1)c1ccc(OCCN2CCCCC2)cc1 (configuration not stated) |
| > 300 °C | O=C(c1ccccc1)N1CCN(c2ccc3nc4[nH]c(=O)[nH]c4cc3c2)CC1 |
| 51 °C | CC1COc2c(ccc(F)c2F)N1 (configuration not stated) |
| 83 to 84 °C | CC(O)C(C)(C)c1cc(Cn2cncn2)cc(C(C)(C)C#N)c1 (configuration not stated) |
| 107 to 109 °C | CS(=O)(=O)N1CCC2(CC1)OCCO2 |
| 238 °C | O=C(O)c1c(Cc2cc3c(cc2Cl)OCO3)c(-c2ccccn2)nn1CC1CCCCC1 |
| 105 to 107 °C | O=c1oc2cc(Cl)cnc2n1CCl |
| 167 to 169 °C | COc1ccc(C(=O)Nc2c(Cl)cncc2Cl)cc1OC1CCCC1F (configuration not stated) |
| 160 to 162 °C | N#Cc1ccc(NC(=O)c2ccnc(SCc3ccc(F)cc3)c2)cc1 |
| 112 to 113 °C | CSc1ccc([N+](=O)[O-])c(C#N)c1 |
| 233 °C | O=C(C=Cc1ccc(-c2ccc3ncnc(Nc4ccc(OCc5cccc(F)c5)c(Cl)c4)c3c2)o1)NOC1CCCCO1 (configuration not stated) |
| 108 to 110 °C | CCCCCCCCCCCCCCCCCCS(=O)c1cc2ccccc2c(N=Nc2ccc(OC)cc2)c1O (configuration not stated) |
| 106 to 107 °C | CC1C(C)(C)c2ccc(C#Cc3ccc(C=O)cc3)cc2C1(C)C (configuration not stated) |
| 229 to 231 °C | C[C@](N)(CO)CCc1ccc2oc(-c3ccc(O)cc3)nc2c1 |
| 78 °C | CCCN(CCCc1csc2ccc(F)cc12)C1COc2cccc(OC)c2C1 (configuration not stated) |

| melting point | SMILES |
| --- | --- |
| 153 to 154 °C | Cc1c(C)c2c(c(C)c1Br)C(c1ccc(-c3ccccc3)cc1)CO2 (configuration not stated) |
| 68 °C | O=C(NCCCCCCCCCCCC(=O)OCC12CC3CC(CC(C3)C1)C2)NC12CC3CC(CC(C3)C1)C2 |
| 203 to 204 °C | O=C(CCl)c1ccc2c(c1)[nH]c1ccccc12 |
| 187 °C | COC(C=CC=Cc1ccc(OC)cc1)=CC(=O)O |
| 225 to 228 °C | CC(C)Oc1ccccc1C1(OCC(=O)O)C(=O)Nc2ccc(Cl)cc21 (configuration not stated) |
| 148 °C | O=C1C(Cl)=C(Cl)C(=O)c2cc(Cl)ccc21 |
| 181 to 182 °C | CC(C)(C)c1coc2c(-c3ccc(F)cc3)c(-c3ccc(S(C)(=O)=O)cc3)nn12 |
| 150 to 152 °C | O=C(O)CCSC(SCCC(=O)O)c1cccc(OCc2ccc3ccccc3n2)c1 |
| 183 to 186 °C | N#Cc1ccc(Oc2cccc(Oc3ccc(C#N)c(C#N)c3)c2)cc1C#N |
| 68 to 70 °C | OCCN1CCN(CC2CCn3c(nc4ccccc43)S2)CC1 (configuration not stated) |
| 137 to 140 °C | O=C(O)CCCOC(c1ccccc1)(c1ccccc1)c1ccccc1 |
| 129 to 131 °C | c1ccc2c(c1)CCN(Cc1cc3ccccc3[nH]1)C2 |
| > 250 °C | CC(C)Cn1cnc2c(N)nc3ccc(-c4ccc(C(C)(C)C)cc4)cc3c21 |
| 36.5 to 36.9 °C | CCCCC(=O)Oc1ccc(-c2ccc(C#N)cc2)cc1 |
| 59 to 59.5 °C | COc1cc(N)c2nccc(C)c2c1OCCCCc1ccccc1 |
| 89 to 90 °C | COc1c(-c2cc3c(s2)CCC(C)(C)C3N=[N+]=[N-])ccc2c(=O)c(C(=O)O)cn(C3CC3)c12 (configuration not stated) |
| 195 to 196 °C | COC(=O)c1ccc(C(=O)Nc2ccc(-n3nc(C(F)(F)F)cc3C(F)(F)F)cc2)cc1 |
| 202 to 203 °C | NC1CC2=CNC=C3C=COCC1=C32 (configuration not stated) |
| 182 to 184 °C | O=c1ccc2c(C(F)(F)F)cc(C(F)(F)F)nc2[nH]1 |
| 175 to 176 °C | CS(=O)c1ccc(-n2cnnn2)cc1 (configuration not stated) |
| 96 to 105 °C | CCOP(C)(=O)CC(CC(C)C)NS(=O)(=O)c1ccc(C)cc1 (configuration not stated) |
| 187 to 188 °C | CC(C(=O)O)C(=O)Nc1cccc(S(=O)(=O)n2c(=O)[nH]c3cc(Cl)ccc3c2=O)c1 (configuration not stated) |
| 118 to 119 °C | CCNC(=Nc1ccccc1N1CCOCC1)NC |
| 147 to 149 °C | NS(=O)(=O)c1ccc(-c2cccn2-c2ccc(Cl)cc2Cl)cc1 |

| melting point | SMILES |
| --- | --- |
| 156 to 158 °C | CC(=O)Nc1ccc(NCC(=O)C23CC4CC(CC(C4)C2)C3)cc1 |
| 181 to 182 °C | CCOC(=O)c1cn(CC)c2nc(OC)c(F)cc2c1=O |
| 55 to 57 °C | CC1(C)OCC(CN2C(=O)C3(COc4cc5c(cc43)OCCO5)c3ccccc32)O1 (configuration not stated) |
| 153 to 154 °C | CCCCN1C(=O)c2cncnc2N(C(=O)CN2CCN(C)CC2)c2ccccc21 |
| 240 to 242 °C | O=C(O)c1cccnc1NCc1ccc(Cl)cc1 |
| 171 to 174 °C | CCOC(=O)N1CCc2nnc(NN=C(C)C)cc2C1 |
| 175 to 176 °C | C#CCOc1ccc2c(c1)nc(N)c1nc(COCC)n(CC(C)(C)NS(C)(=O)=O)c12 |
| 68.5 to 70 °C | CCc1cccc(C)c1NC(=O)C(C)N (configuration not stated) |
| 112 to 118 °C | CCN(CCCCc1coc2c(OC)cccc12)C1COc2c(F)ccc(C(N)=O)c2C1 (configuration not stated) |
| > 300 °C | O=C(O)c1ccc(-c2nc3ccccc3s2)nc1 |
| 72 to 75 °C | CN(C)C(c1cccc(F)c1)C1CCC(=O)CC1 (configuration not stated) |
| > 250 °C | COc1cc2c(cc1C)C1(CO2)C(=O)Nc2ccccc21 (configuration not stated) |
| 159 to 161 °C | CCC(CC)Oc1cc(C)nc2c1nc(N)n2-c1c(C)cc(C)cc1C |
| 187 °C | COc1cc(Nc2nccc(-c3ccccc3)n2)cc(OC)c1OC |
| 160 to 161 °C | CC(C)OC(=O)c1ccc(=O)n(CCNC(=O)c2cccnc2)c1 |
| 54 to 58 °C | CC(C)(C)OC(=O)NCC1(CC#N)CCCCC1 |
| 230 to 233 °C | O=C(Nc1ccc(Cl)cn1)c1cc(F)ccc1NCC1CCNCC1 |
| 106 °C | CC(C)(C)OC(=O)N1CCN(C(=O)c2ccccc2)CC1 |
| 153 to 155 °C | Nc1cccnc1Nc1cc(Cl)ccc1C(=O)c1ccccc1 |
| 178 to 181 °C | Nc1ccc(Oc2ccc(C(c3ccc(Oc4ccc(N)c(O)c4)cc3)(C(F)(F)F)C(F)(F)F)cc2)cc1O |
| 334 to 335 °C | CC1(C)C(=O)Nc2ccc(C3=NNC(=O)C4CC34)cc21 (configuration not stated) |
| 90 to 93 °C | CCCCn1c(=O)c2nn(S(=O)(=O)Cc3ccccc3)cc2n(CCCC)c1=O |
| 197 to 199 °C | Clc1cc(-c2ccc3nnn(Cc4ccc5ncccc5c4)c3n2)ccn1 |
| 74 to 80 °C | CCCCC1=NC2(CCCC2)C(=O)N1Cc1ccc(-c2ccccc2S(=O)(=O)Nc2onc(C)c2C)c(COCC)c1 |

| melting point | SMILES |
| --- | --- |
| 52 to 55 °C | CC(C)(C)OC(=O)N[C@@H]1CCc2ccc(OS(=O)(=O)C(F)(F)F)cc2C1 |
| 285 to 288 °C | CC(=O)Oc1c2ccc(C(F)(F)F)cc2c(OC(C)=O)c2cc3ccccc3cc12 |
| 62 to 63 °C | C1=CCC(C2CCCCCCC2)N=NC(C2CCCCCCC2)CC=CCC1 (configuration not stated) |
| 49 to 50 °C | C/C=C(/COC(=O)CNC(=O)C(F)(F)F)c1ccccc1 |
| 88 to 89 °C | Cc1cc(O)c(C)c2c1C(C)CC(C)(C)O2 (configuration not stated) |
| 111 to 112 °C | CC(C)C(NC(=O)[C@@H]1CCCN1C(=O)[C@@H](NC(=O)c1ccc(C(=O)N2CCOCC2)nc1)C(C)C)C(=O)C(F)(F)C(F)(F)F (some centres not stated) |
| 148 to 149 °C | Cc1ccc(-n2ccc3c(Cl)nnc(Cl)c32)c(C)c1 |
| 139 to 141 °C | N#CC(O)CC12CCC(c3ccccc31)c1ccccc12 (configuration not stated) |
| 126 °C | C=CCC(O)c1c(-c2ccc(F)cc2)nc(N(C)S(C)(=O)=O)nc1C(C)C (configuration not stated) |
| 110 to 111 °C | COC(=O)CC1c2ccccc2C(=O)N1c1ccc(Cl)cn1 (configuration not stated) |
| 118 to 119 °C | COC(c1cccc2nc3n(c12)CCCN3c1ccc(Cl)cc1Cl)C1CC1 (configuration not stated) |
| 74 to 76 °C | COc1ccc(Nc2cccc(Cl)n2)cc1 |
| 72 to 74 °C | COC(=O)C(C)c1ccc2cc(OC(=O)CO[N+](=O)[O-])ccc2c1 (configuration not stated) |
| 88 to 90 °C | CC(C(=O)O)c1cc([N+](=O)[O-])ccc1F (configuration not stated) |
| 217 to 219 °C | COc1cc(OC)c2c(=O)[nH]c(-c3cccc(-c4ccc(C(=O)N(C)C)cc4)n3)nc2c1 |
| 157 to 160 °C | Clc1ccc(CSC(Cn2ccnc2)C23CC4CC(CC(C4)C2)C3)cc1 (configuration not stated) |
| 79 to 84 °C | CCOC(=O)[C@H](CCSCC)NC(=O)C(CSC(C)=O)Cc1ccccc1 (some centres not stated) |
| 190 to 192 °C | O=C(O)c1cccc(-c2nc3cc(N4CCCC4=O)ccc3o2)c1 |
| 121 to 122 °C | COc1ccc(CCC2OC(=O)NC2=O)cc1O (configuration not stated) |
| 298 to 300 °C | C=C1SC(=O)N(c2ccc3cc(-c4cc5c(c(-c6cccnc6)c4)OCO5)ccc3c2)C1=O |
| 255 to 258 °C | CCNC(=O)c1ccc(N2CCN(Cc3cnc4c(c3)[nH]c(=O)n3cccc43)CC2)c(C)c1 |
| 217 to 218 °C | NC[C@@H]1CN(c2nc3c(cc2F)c(=O)c(C(=O)O)cn3C2CC2)C[C@@H]1F (relative stereo) |
| 105 to 107 °C | N#Cc1cc(Cl)ccc1NC(=O)C(F)(F)F |

| SMILES | melting point |
| --- | --- |
| CCCc1c(C(=O)C(C)C)c2ccc(C(N)=O)cc2n1Cc1ccccc1[N+](=O)[O-] | 181 to 182 °C |
| CCCCOC(=O)c1ccc(N2CCN(C)CC2)cc1 | 118 to 120 °C |
| OCc1ccc(-c2csc(-c3cn([C@H]4CN5CCC4CC5)nn3)c2)cc1 | 196 °C |
| O=[PH](c1ccc(Cl)cc1)c1ccc(Cl)cc1 | 124 °C |
| CCN(CC)Cc1nnc2n1-c1ccc(Cl)cc1C(c1ccccc1)=NC2 | 130 to 132 °C |
| N#Cc1cccc(NCc2nc3ccc(F)cc3c(=O)n2-c2ccccc2Cl)c1 | 225 to 228 °C |
| CC1(C)NC(=O)CN1C(=O)CCl | 151 to 153 °C |
